From patent US20200247849A1, “PEPTIDE AGONISTS AND ANTAGONISTS OF TLR4 ACTIVATION” (PEPTICOM LTD, priority 2016, published 2020)

System: TLR4 with MD2 or CD14 co-receptor
Assay: Reporter gene (SEAP) PAMP assay in NIH3T3 cells expressing TLR4 with MD2 or CD14 co-receptor
Format: cell-based
Settings: summary of FIGS. 6A-6V
Text: FIGS. 6A-6V show the dose response inhibitor/activator effects of the designed peptides using a reporter gene assay. The reporter gene assay is composed of NIH3T3 cells transfected with either MD2 or CD14 along with TLR4 and the NF-κB-inducible reporter gene Secreted Alkaline Phosphatase (SEAP) to monitor TLR4 activation (Burger-[…] al. 2010, A new cell-based innate immune receptor assay for the examination of receptor activity, ligand specificity, signaling pathways and the detection of pyrogens. […] The receptors are coupled to for the detection of inhibitory activity, cells were treated with the peptide prior to exposure to LPS and the response to LPS is measured at variable peptide doses (as labeled). The detection of cell activation was performed using the peptide alone, at variable doses, as indicated in the respective graphs. The following presents in more details the experimental procedures. Experimental setup: The cell-based Assay is performed with different NIH3T3 reporter cell lines (NIH 3T3 PRR SEAP-TLR4/CD14 or -TLR4/MD2) and the control cell line NIH 3T3 SEAP. The NIH3T3 SEAP cell line is used in order to determine the background of the alkaline phosphatase expression. It is a cell line stably transfected with only the reporter gene plasmid. For each assay a vial of the master cell bank is revitalized and seeded in a standard cell culture flask (75 cm^2 T-Flask) at day one. Cells are cultured in 20 ml culture media (DMEM supplemented with 10% FCS (heat inactivated), 50 units/ ml penicillin, 0.05 mg/ ml streptomycin and 2 mmol/ L L-glutamine). The cells are cultured at 37° C. in a 5% CO2 humidified atmosphere. At Day 1: For the PAMP Assay cells are seeded in a 96-well plate at a density of 0.3.10^5 cells/well in a final volume of 100 μl culture media (DMEM, 10% FCS (heat inactivated)). To ensure equal culture conditions the 96-well cell culture plates are placed side by side and cultivated in a humidified CO2 incubator (37° C. and 5% CO2). […] After a cultivation period of 24 h the media is removed and replaced with the respective volume of fresh media (DMEM, 0.5% FCS (heat inactivated)).The lyophilized peptides are stored in a freezer at -20° C. upon arrival. For the experiments they are dissolved in DMSO (to the highest possible concentration). Before opening the peptides are allowed to equilibrate to room temperature (in order to reduce the uptake of moisture). For each experiment the stock solution is diluted in DMEM to the appropriate working concentration. […] Sonication was also used to help dissolve the peptides. Immediately after replacing the media, the diluted peptides are applied in a serial dilution to the cells and directly after that the agonist is added to the cells. After adding peptide and […] the final volume in each well of a 96 well plate amounts 100 μl/well. The culture medium containing 0.5% FCS is used as a negative reference item. The induction is performed for 18 h at 37° C. and 5% CO2. At Day 3: To determine the final SEAP value, 50 μl of the supernatant is carefully transferred in a new 96-well plate (Greiner-F-plate) and 50 μl of the substrate (pNPP; p-nitrophenyl phosphate) is added. SEAP catalyzes the hydrolysis of pNPP to the final product para-nitrophenol (yellow) which can be detected by a photometric analysis using an UV-VIS reader at 405 nm. […] The results of FIGS. 6A-6V with respect to peptide activity are summarized in Table 1 above with respect to the type of effect of the respective peptide (activation/inhibition) and with respect to the corresponding co-receptor (MD2/CD14). Data concerning SEQ ID No. 22 with respect to co-receptor CD14 is in preparation.

Sequence: ILFMGMKWL (Inhibitor) [SEQ ID No. 9]
- Co-Receptor/s (co-receptor (MD2/CD14) via which the effect occurs): MD2
- Activity (type of effect (activation/inhibition) on TLR4): Inhibitor
